Laboratory results from US11718604B2, “4-amino-6-(1,3-benzodioxole)picolinates and their use as herbicides” (Dow AgroSciences LLC, priority 2018, dated 2023).

Columns and labels:
Type in all cases: in vivo
[1] = system: ABUTH: velvetleaf (Abutilon theophrasti); assay: Post-emergent herbicidal test, velvetleaf; conditions: post-emergence, 336 h, 14 days after application, read-out: Visual Growth Reduction (%) 14 Days After Application ABUTH; for pest or weed control at 17.5 g/ha: 17.5 g ai/ha; for pest or weed control at 35 g/ha: 35 g ai/ha; for pest or weed control at 70 g/ha: 70 g ai/ha; for pest or weed control at 140 g/ha: 140 g ai/ha
In short: (§1)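 Seedlings grown in greenhouse (23-29 °C day, 22-28 °C night, ~15 h photoperiod) to first or second true leaf stage were sprayed overhead at 187 L/ha with compound in acetone/DMSO/water/isopropanol/crop oil/Triton X-155, at the high rate and ½× to 1/16× dilutions. Injury scored visually after 14 d, 0 (none) to 100% (complete kill), relative to untreated plants.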

[2] = system: BRSNN: oilseed rape, canola (Brassica napus); assay: Post-emergent herbicidal test, oilseed rape; conditions: post-emergence, 336 h, 14 days after application, read-out: Visual Growth Reduction (%) 14 Days After Application BRSNN; for pest or weed control at 17.5 g/ha: 17.5 g ai/ha; for pest or weed control at 35 g/ha: 35 g ai/ha; for pest or weed control at 70 g/ha: 70 g ai/ha; for pest or weed control at 140 g/ha: 140 g ai/ha
In short: as §1

[3] = system: CIRAR: Canada thistle (Cirsium arvense); assay: Post-emergent herbicidal test, Canada thistle; conditions: post-emergence, 336 h, 14 days after application, read-out: Visual Growth Reduction (%) 14 Days After Application CIRAR; for pest or weed control at 17.5 g/ha: 17.5 g ai/ha; for pest or weed control at 35 g/ha: 35 g ai/ha; for pest or weed control at 70 g/ha: 70 g ai/ha; for pest or weed control at 140 g/ha: 140 g ai/ha
In short: as §1

[4] = system: EPHHL: wild poinsettia (Euphorbia heterophylla); assay: Post-emergent herbicidal test, wild poinsettia; conditions: post-emergence, 336 h, 14 days after application, read-out: Visual Growth Reduction (%) 14 Days After Application EPHHL; for pest or weed control at 17.5 g/ha: 17.5 g ai/ha; for pest or weed control at 35 g/ha: 35 g ai/ha; for pest or weed control at 70 g/ha: 70 g ai/ha; for pest or weed control at 140 g/ha: 140 g ai/ha
In short: as §1

[5] = system: IPOHE: ivyleaf morningglory (Ipomoea hederacea); assay: Post-emergent herbicidal test, ivyleaf morningglory; conditions: post-emergence, 336 h, 14 days after application, read-out: Visual Growth Reduction (%) 14 Days After Application IPOHE; for pest or weed control at 17.5 g/ha: 17.5 g ai/ha; for pest or weed control at 35 g/ha: 35 g ai/ha; for pest or weed control at 70 g/ha: 70 g ai/ha; for pest or weed control at 140 g/ha: 140 g ai/ha
In short: as §1

[6] = system: VIOTR: wild violet (Viola tricolor); assay: Post-emergent herbicidal test, wild violet; conditions: post-emergence, 336 h, 14 days after application, read-out: Visual Growth Reduction (%) 14 Days After Application VIOTR; for pest or weed control at 17.5 g/ha: 17.5 g ai/ha; for pest or weed control at 35 g/ha: 35 g ai/ha; for pest or weed control at 70 g/ha: 70 g ai/ha; for pest or weed control at 140 g/ha: 140 g ai/ha
In short: as §1

[7] = system: CYPES: yellow nutsedge (Cyperus esculentus); assay: Post-emergent herbicidal test, yellow nutsedge; conditions: post-emergence, 336 h, 14 days after application, read-out: Visual Growth Reduction (%) 14 Days After Application CYPES; for pest or weed control at 17.5 g/ha: 17.5 g ai/ha; for pest or weed control at 35 g/ha: 35 g ai/ha; for pest or weed control at 70 g/ha: 70 g ai/ha; for pest or weed control at 140 g/ha: 140 g ai/ha
In short: as §1

[8] = system: DIGSA: large crabgrass (Digitaria sanguinalis); assay: Post-emergent herbicidal test, large crabgrass; conditions: post-emergence, 336 h, 14 days after application, read-out: Visual Growth Reduction (%) 14 Days After Application DIGSA; for pest or weed control at 17.5 g/ha: 17.5 g ai/ha; for pest or weed control at 35 g/ha: 35 g ai/ha; for pest or weed control at 70 g/ha: 70 g ai/ha; for pest or weed control at 140 g/ha: 140 g ai/ha
In short: as §1

[9] = system: ECHCG: barnyardgrass (Echinochloa crus-galli); assay: Post-emergent herbicidal test, barnyardgrass; conditions: post-emergence, 336 h, 14 days after application, read-out: Visual Growth Reduction (%) 14 Days After Application ECHCG; for pest or weed control at 17.5 g/ha: 17.5 g ai/ha; for pest or weed control at 35 g/ha: 35 g ai/ha; for pest or weed control at 70 g/ha: 70 g ai/ha; for pest or weed control at 140 g/ha: 140 g ai/ha
In short: as §1

[10] = system: SETFA: giant foxtail (Setaria faberi); assay: Post-emergent herbicidal test, giant foxtail; conditions: post-emergence, 336 h, 14 days after application, read-out: Visual Growth Reduction (%) 14 Days After Application SETFA; for pest or weed control at 17.5 g/ha: 17.5 g ai/ha; for pest or weed control at 35 g/ha: 35 g ai/ha; for pest or weed control at 70 g/ha: 70 g ai/ha; for pest or weed control at 140 g/ha: 140 g ai/ha
In short: as §1

[11] = system: SORVU: shattercane (Sorghum bicolor); assay: Post-emergent herbicidal test, shattercane; conditions: post-emergence, 336 h, 14 days after application, read-out: Visual Growth Reduction (%) 14 Days After Application SORVU; for pest or weed control at 17.5 g/ha: 17.5 g ai/ha; for pest or weed control at 35 g/ha: 35 g ai/ha; for pest or weed control at 70 g/ha: 70 g ai/ha; for pest or weed control at 140 g/ha: 140 g ai/ha
In short: as §1

Nc1c(F)c(-c2ccc(Cl)c3c2OC(F)(F)O3)nc(C(=O)O)c1Cl [Compound 14]
pest or weed control at 17.5 g/ha [1]: 43% | pest or weed control at 35 g/ha [1]: 53% | pest or weed control at 70 g/ha [1]: 73% | pest or weed control at 140 g/ha [1]: 80% | pest or weed control at 17.5 g/ha [2]: 90% | pest or weed control at 35 g/ha [2]: 95% | pest or weed control at 70 g/ha [2]: 98% | pest or weed control at 140 g/ha [2]: 100% | pest or weed control at 17.5 g/ha [3]: 78% | pest or weed control at 35 g/ha [3]: 83% | pest or weed control at 70 g/ha [3]: 85% | pest or weed control at 140 g/ha [3]: 90% | pest or weed control at 17.5 g/ha [4]: 0% | pest or weed control at 35 g/ha [4]: 0% | pest or weed control at 70 g/ha [4]: 0% | pest or weed control at 140 g/ha [4]: 10% | pest or weed control at 17.5 g/ha [5]: 3% | pest or weed control at 35 g/ha [5]: 3% | pest or weed control at 70 g/ha [5]: 8% | pest or weed control at 140 g/ha [5]: 13% | pest or weed control at 17.5 g/ha [6]: 5% | pest or weed control at 35 g/ha [6]: 13% | pest or weed control at 70 g/ha [6]: 43% | pest or weed control at 140 g/ha [6]: 58% | pest or weed control at 17.5 g/ha [7]: 0% | pest or weed control at 35 g/ha [7]: 10% | pest or weed control at 70 g/ha [7]: 30% | pest or weed control at 140 g/ha [7]: 50% | pest or weed control at 17.5 g/ha [8]: 0% | pest or weed control at 35 g/ha [8]: 0% | pest or weed control at 70 g/ha [8]: 0% | pest or weed control at 140 g/ha [8]: 5% | pest or weed control at 17.5 g/ha [9]: 0% | pest or weed control at 35 g/ha [9]: 0% | pest or weed control at 70 g/ha [9]: 0% | pest or weed control at 140 g/ha [9]: 5% | pest or weed control at 17.5 g/ha [10]: 0% | pest or weed control at 35 g/ha [10]: 0% | pest or weed control at 70 g/ha [10]: 0% | pest or weed control at 140 g/ha [10]: 0% | pest or weed control at 17.5 g/ha [11]: 0% | pest or weed control at 35 g/ha [11]: 3% | pest or weed control at 70 g/ha [11]: 13% | pest or weed control at 140 g/ha [11]: 30%

COC(=O)c1nc(-c2ccc(Cl)c3c2OC(F)(F)O3)c(Cl)c(N)c1Cl [Compound 13]
pest or weed control at 17.5 g/ha [1]: 30% | pest or weed control at 35 g/ha [1]: 50% | pest or weed control at 70 g/ha [1]: 75% | pest or weed control at 140 g/ha [1]: 80% | pest or weed control at 17.5 g/ha [2]: 40% | pest or weed control at 35 g/ha [2]: 60% | pest or weed control at 70 g/ha [2]: 70% | pest or weed control at 140 g/ha [2]: 80% | pest or weed control at 17.5 g/ha [3]: 50% | pest or weed control at 35 g/ha [3]: 60% | pest or weed control at 70 g/ha [3]: 80% | pest or weed control at 140 g/ha [3]: 85% | pest or weed control at 17.5 g/ha [4]: 0% | pest or weed control at 35 g/ha [4]: 0% | pest or weed control at 70 g/ha [4]: 0% | pest or weed control at 140 g/ha [4]: 0% | pest or weed control at 17.5 g/ha [5]: 0% | pest or weed control at 35 g/ha [5]: 10% | pest or weed control at 70 g/ha [5]: 20% | pest or weed control at 140 g/ha [5]: 30% | pest or weed control at 17.5 g/ha [6]: 0% | pest or weed control at 35 g/ha [6]: 0% | pest or weed control at 70 g/ha [6]: 0% | pest or weed control at 140 g/ha [6]: 0% | pest or weed control at 17.5 g/ha [7]: 0% | pest or weed control at 35 g/ha [7]: 0% | pest or weed control at 70 g/ha [7]: 0% | pest or weed control at 140 g/ha [7]: 0% | pest or weed control at 17.5 g/ha [8]: 0% | pest or weed control at 35 g/ha [8]: 0% | pest or weed control at 70 g/ha [8]: 0% | pest or weed control at 140 g/ha [8]: 0% | pest or weed control at 17.5 g/ha [9]: 0% | pest or weed control at 35 g/ha [9]: 0% | pest or weed control at 70 g/ha [9]: 0% | pest or weed control at 140 g/ha [9]: 0% | pest or weed control at 17.5 g/ha [10]: 0% | pest or weed control at 35 g/ha [10]: 0% | pest or weed control at 70 g/ha [10]: 0% | pest or weed control at 140 g/ha [10]: 0% | pest or weed control at 17.5 g/ha [11]: 0% | pest or weed control at 35 g/ha [11]: 0% | pest or weed control at 70 g/ha [11]: 0% | pest or weed control at 140 g/ha [11]: 0%
